Measurements reported in patent US20090264342A1, “COMPOSITIONS AND METHODS FOR ANTIBIOTIC POTENTIATION AND DRUG DISCOVERY” (priority 2006, published 2009).

How the values were obtained:
E. coli MG1655 = test: Hydroxyl radical formation (HPF dye, flow cytometry) in E. coli; type: cell-based; conditions: for hydroxyl radical formation: E. coli, 250 ng/mL norfloxacin, 5 μg/mL ampicillin, 5 μg/mL kanamycin, bacteriostatic drugs, 3 hours after addition
Protocol: (§1) Growth Conditions. In the experiments, the growth and survival of untreated exponential phase E. coli, or S. aureus, were compared to cultured treated with antibiotics at the above concentrations. E. coli cultures were treated with norfloxacin, kanamycin, ampicillin, rifamycin SV, chloramphenical, tetracycline, erythromycin, or spectinomycin, where appropriate, S. aureus cultures were treated with norfloxacin, vancomycin or chloramphenical, where appropriate.
Hydroxyl radical and DNA damage sensor experiments using the flow cytometer. To monitor the occurrence of DNA damage, the engineered DNA damage sensor was used, which responds to auto-cleavage of LexA by activating expression of gfpmut3b. All the drug treatments and the no-drug controls were collected with both the kanamycin- and ampicillin-resistant version of the plasmid, with the exception of the ampicillin treatment (kanamycin plasmid only) and the kanamycin treatment (ampicillin plasmid only). All data were collected using a Becton Dickinson FACSCalibur flow cytometer (Becton Dickinson, San Jose, Calif.) with a 488-nm argon laser and a 515- to 545-nm emission filter (FL1) at low flow rate. The following PMT voltage settings were used: E00 (FSC), 360 (SSC) and 700 (FL1). To detect hydroxyl radical formation, the fluorescent reporter dye, 3′-(p-hydroxyphenyl) fluorescein (HPF, Invitrogen, Carlsbad, Calif.) was used at a concentration of 5 μM (1:1000) dilution), which is oxidized by hydroxyl radicals with high specificity. The following PMT voltage settings were used: E00 (FSC), 360 (SSC) and 825 (FL 1). Calibrite beads (Becton Dickinson) were used for instrument calibration.
Flow data were processed and analyzed with MATLAB (MathWorks, Natick, Mass.) to construct figures. At least 50,000 cells were collected for each sample. In all experiments, cells were grown as described above. Samples were taken immediately before addition of drug (time zero), then every hour for 3 hours. At each timepoint, approximately […] were collected, washed once and resuspended in filtered 1×PBS, pH 7.2 (Fisher Scientific), and fluorescence was measured on the flow cytometer.
In the present study, the Applicants chose to investigate whether hydroxyl radical formation also contributes to antibiotic-induced cell death in bacteria. Using the dye hydroxyphenyl fluorescein, HPF, which is oxidized by hydroxyl radicals with high specificity, hydroxyl radical formation was first observed over a range of hydrogen peroxide concentrations known to induce hydroxyl radicals through the reduction of hydrogen peroxide by ferrous iron. In this manner, it was possible to establish the scale of hydroxyl radical formation detectable using this dye via flow cytometry.

wild-type E. coli = type: cell-based; conditions: norfloxacin, ampicillin or kanamycin treatment plus 2,2′-dipyridyl (500 μM)
Protocol: FIG. 36 is a set of 3 graphs showing the effect of iron chelation, hydroxyl radical quenching of iron-sulfur synthesis on the […] efficiency of bactericidal antibiotics. a,c,e, Log change in colony forming units per mL (CFU/mL, mean+/−standard deviation). Effect of addition of 500 μM 2,2′-dipyridyl or 150 mM thiourea to wildtype E. coli, and on an iron-sulfur cluster synthesis mutant, ΔiscS, on bactericidal drug efficacy and hydroxyl radical formation following exposure to a, 250 ng/mL norfloxacin (Nor), c, 5 μg/mL ampicillin (Amp), or e, 5 μg/mL kanamycin (Kan).
as §1
Application of iron chelators is an established means of blocking Fenton reaction-mediated hydroxyl radical formation by sequestering unbound iron. […]

Streptomyces pneumoniae = conditions: more active than ciprofloxacin against this pathogen; cited from earlier work
[1] = system: SOS response (LexA auto-cleavage) in E. coli; test: SOS induction, LexA-controlled GFP DNA damage sensor; type: cell-based; conditions: 5 μg/mL Amp, 5 μg/mL Kan, 25 ng/mL Nor; 3 hours after addition
Protocol: FIG. 37 is a set of two graphs showing SOS induction in E. coli by bactericidal antibiotics. Activation of the SOS response was monitored using an engineered sensor construct that employs the LexA repressor for control of Green Fluorescent Protein (GFP) expression. Shown are representative GFP histogram measurements taken 3 hours after addition of a, bactericidal antibiotics (5 μg/mL Amp, 5 μg/mL Kan, 25 ng/mL Nor). b, Log change in CFU/mL of ΔrecA E. coli following exposure to 5 μg/mL Kanamycin (open diamonds), 25 ng/mL Norfloxacin (open triangles), and 5 μg/mL Ampicillin (open circles). For comparison, CFU/mL are also shown for widltype E. coli exposed to 5 μg/mL Kanamycin (diamonds), 25 ng/mL Norfloxacin (triangles), and 5 μg/mL Ampicillin (circles), as well as a lower concentration of norfloxacin in these experiments to highlight the significant increase in killing in a recA knockout.
DNA damage sensor construction. The DNA sensor construct with ampicillin resistance was described previously (D. J. Dwyer et al., “Superoxide and hydroxyl radicals contribute to gyrase inhibitor-mediated cell death in E. coli”, 2007 accepted by Mol. Syst. Biol., which is incorporated herein by reference in its entirety).
Hydroxyl radical and DNA damage sensor experiments using the flow cytometer. […]
Hydroxyl radical are extremely toxic, and will readily damage membrane lipids, proteins and DNA. […]

E. Coli RecA protein = target: T1, E. Coli RecA protein (Escherichia coli, UniProt P0A7G6); test: RecA ATPase activity, in vitro luciferase assay; type: biochemical; conditions: luciferase assay screen
T1 construct: purchased New England Biolabs
Protocol: The assay measures the amount of ATPase (adenosine triphosphate (ATP)-adenosine diphosphate (ADP)) activity catalyzed by E. Coli RecA protein. In the assay, recA is incubated in reaction buffer with DNA, ATP and compounds of interest for a measured amount of time. The quantity of ATP remaining after the RecA reaction is quantitated using a subsequent luciferase assay. […] Details of the assay are provided below.
Materials. Kingase glo plus, adenosine triphosphate (ATP), Adenosine 5′-O-(3-thiotriphosphate), and 384 well plates, white were obtained from Fisher; and M13 mp18 Single-stranded DNA, RecA Protein and T4 Polynucleotide Kinase Reaction Buffer=PNK were obtained from New England Biolabs. PNK contained 70 mM Tris-CL pH 7.5, 10 mM MgCl2 and 5 mM DTT.
Assay Procedure. Final reaction mixture contains: 0.5 μL of M13 single stranded DNA (250 μg/mL); 1.0 μL of 10×PHK buffer; 0.25 μL of RecA (2 mg/mL); 0.25 μL of 1 mM ATP; 0.25 μL of test compound in DMSO; and […] of H2O.
Test compounds are incubated at room temperature in the presence of RecA protein and DNA prior to addition of ATP. This can be achieved by the preparation of two mixes, as indicated below. Desirably, both a no-DNA and a DNA/DMSO-only (i.e., no test compound) control were included.
The following steps are then performed: (1) Add 7.75 μL of mix 1 to the well of a 384 well plate; (2) Add 0.5 μL of the compound of interest; (3) Incubate at room temperature for 5 minutes; (4) Add 2.5 μL of the ATP mix. Incubate at room temperature for 30 minutes; (5) Add 12.5 μL of Promega Kinase glo plus; (6) Incubate at room temperature for 10 minutes or more; and (7) Measure luminescence of the reaction.
Tested compounds were obtained from Boston University (1205 compounds from CMLD diversity library, available from Dr. Scott Schauss), IndoFine (66 compounds based on flavone structure), ChemdiV (48 compounds known to be ATPase inhibitors and 720 compounds structurally related to CB101 (described, for example, in U.S. Ser. No. 60/662,038), and Asinex. Five (5) tested compounds were bisfiavones and 28 were predicted, based on structural modeling (see, for example, Example 31) to dock with Rec A. Many of the compounds are lipophilic, natural-product-like compounds. Others are flavones, bisflavones, flavonoids, coumarins, and/or heterocyclic compounds.
Percent inhibition is calculated according to the following equation: […]

[2] = system: S. aureus strain S3 (ISP 794); test: Survival assay, potentiation of ciprofloxacin, S. aureus strain S3; type: cell-based; conditions: 1 μg/mL ciprofloxacin + 25 μg/mL hinokiflavone, 16 hour time point
From the text: Cell-based Survival Assay.

S. aureus cells = test: Mutation/resistance assay, resistance to ciprofloxacin; type: cell-based; conditions: 4×MIC ciprofloxacin with (+) or without (−) 25 μg/mL hinokiflavone
Protocol: This assay measures the rate at which mutant cells arise in the presence of an antibiotic agent. Cells are grown in the presence of antibiotic agent at a concentration above (generally well above, e.g., 4× or 8×) its MIC, and further in the presence or absence of a test agent (that may inhibit or enhance mutation).
Every 24 hours, an aliquot is removed from the culture and is diluted so that the antibiotic agent is no longer present at a concentration above its MIC (e.g., so that the antibiotic agent is present at 0.5×MIC or less). These aliquoted samples are then assayed to determine whether they can grow in the presence of the antibiotic agent. Specifically, when growth is observed in the presence of antibiotic agent at a concentration that is 4×MIC, then resistance is said to have developed. Test compounds can therefore be assayed to assess whether or not they can reduce the incidence of resistance (e.g., by inhibiting mutation).
These aliquoted samples were then assayed to determine whether they can grow in the presence of ciprofloxacin. […]

wildtype E. coli = test: NAD+/NADH extraction and NAD cycling assay; type: cell-based; conditions: bacteriostatic drug
From the text: NAD+/NADH extraction and NAD cycling assay. Protocols for dinucleotide extraction and the cycling assay were based on protocols by Leonardo et al. (M. R. Leonardo et al., J. Bacteriol., 1996, 178: 6013-6018).
Using a modified version (M. R. Leonardo et al., J. Bacteriol., 1996, 178: 6013-6018;) of the NAD^+ cycling assay developed by Bernofsky and Swan (C. Bernofsky et al., Anal. Biochem., 1973, 53: 452-458), the present Applicants monitored NAD^+ and NADH concentrations in wildtype E. coli following treatment with the bactericidal drugs norfloxacin, ampicillin and kanamycin, as well as the bacteriostatic drug spectinomycin. For all three bactericidal drugs, a >5 fold increase in the NAD^+/NADH ratio was observed 0.5 hours after drug addition. This ratio returned to untreated levels by 1 hour. The increase in the NAD^+/NADH ratio was predominantly due to a large relative drop in NADH accompanied by a modest surge in NAD^+. This spike was not observed in an untreated culture, where the ratio of NAD^+/NADH remained tightly bounded. More importantly, treatment with the bacteriostatic drug spectinomycin had no effect on the NAD^+/NADH ratio relative to the untreated culture. A surge in NADH consumption upon exposure to bactericidal antibiotics should induce a burst in superoxide generation via the respiratory chain. […]

T1 sequence (P0A7G6 2-353): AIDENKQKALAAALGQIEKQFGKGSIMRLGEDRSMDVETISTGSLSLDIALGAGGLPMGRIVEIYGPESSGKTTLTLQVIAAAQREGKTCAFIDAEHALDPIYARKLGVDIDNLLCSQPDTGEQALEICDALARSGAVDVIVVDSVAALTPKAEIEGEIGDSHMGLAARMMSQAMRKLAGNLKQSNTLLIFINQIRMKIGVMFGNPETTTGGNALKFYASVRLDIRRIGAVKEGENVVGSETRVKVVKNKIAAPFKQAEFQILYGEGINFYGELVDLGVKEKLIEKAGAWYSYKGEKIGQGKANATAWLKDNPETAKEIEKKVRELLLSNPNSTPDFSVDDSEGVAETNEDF

SMILES: c1ccc(-c2ccccn2)nc1 [2,2′-dipyridyl]
- hydroxyl radical formation in norfloxacin-treated cultures (E. coli MG1655; addition of 2,2′-dipyridyl (500 μM)): significantly reduced hydroxyl radical formation
- survival of bactericidal drug-treated E. coli following addition of iron chelator (wild-type E. coli): significant increase in survival

SMILES: CO/N=C1\CN(c2nc3c(cc2F)c(=O)c(C(=O)O)cn3C2CC2)CC1CN (stereo not drawn) [Gemifloxacin]
- activity relative to ciprofloxacin (Streptomyces pneumoniae): 30 fold

SMILES: CC1(C)S[C@@H]2[C@H](NC(=O)[C@H](N)c3ccccc3)C(=O)N2[C@H]1C(=O)O [ampicillin]
- SOS activity (LexA-driven GFP expression) [1]: induced the SOS response
- hydroxyl radical formation (E. coli MG1655): induce hydroxyl radical formation

SMILES: O=c1cc(-c2ccc(Oc3c(O)cc4oc(-c5ccc(O)cc5)cc(=O)c4c3O)cc2)oc2cc(O)cc(O)c12 [hinokiflavone]
- IC50 (E. Coli RecA protein): < 1.86 µM
- fewer CFUs in the presence of hinokiflavone as compared with its absence [2]: approximately 100 fold
- Number of Wells in which Growth Observed in Presence of Ciprofloxacin at 4x MIC (S. aureus cells; culture grown 0 days): 0
- Number of Wells in which Growth Observed in Presence of Ciprofloxacin at 4x MIC (S. aureus cells; culture grown 1 day): 0
- Number of Wells in which Growth Observed in Presence of Ciprofloxacin at 4x MIC (S. aureus cells; culture grown 5 days): 0
- Number of Wells in which Growth Observed in Presence of Ciprofloxacin at 4x MIC (S. aureus cells; culture grown 6 days): 0
- Number of Wells in which Growth Observed in Presence of Ciprofloxacin at 4x MIC (S. aureus cells; culture grown 7 days): 3
- Number of Wells in which Growth Observed in Presence of Ciprofloxacin at 4x MIC (S. aureus cells; culture grown 10 days): 4

SMILES: CN[C@@H]1[C@H](O)[C@H](NC)[C@H]2O[C@@]3(O)C(=O)C[C@@H](C)O[C@H]3O[C@@H]2[C@H]1O [spectinomycin]
- effect on the NAD+/NADH ratio relative to the untreated culture (wildtype E. coli): no effect
- hydroxyl radical formation (E. coli MG1655): did not stimulate hydroxyl radical production
